From patent publication US7744936B2, “Method for preparing extract from wild ginseng showing anticancer activity and the composition comprising the same” (Seocksanteo Medical Co., Ltd., priority 2004, dated 2010) come the findings set out here.

The structures appear in SMILES notation. Values after ≈ are worked out from the molar mass of the structure shown.

Assay [1] deals with MDA-MB-231 (human breast cancer cell line). In words: MTT cell cytotoxicity on MDA-MB-231 cells. The note with it: 48 hours, adriamycin, read-out: IC50, cytotoxic effect on MDA-MB-231 cells. It counts as cell-based. The procedure: (§1) U937 cells (human leukemia cell line), A549 cells (human lung cancer cell line) and MDA-MB-231 (human breast cancer cell line) cells were grown on the culture dish having 100 mm diameter (TPP Co., Ltd., Switzerland) in RPMI1640 (Gibco BRL Co., Ltd., USA), supplemented with 10% fetal bovine serum which was inactivated at 37° C. in 5% CO2 and 95% air condition in a humidified incubator. […] Cells on […] culture dish were treated with 500 μl of trypsin-EDTA (Gibco BRL Co., Ltd., U.S.A.) to separate from the dish and 10 ml of fresh medium was added thereto so as to neutralize trypsin-EDTA solution and obtain cell suspension. 1×10^4 cells/well were seeded in 96-well plate and after 24 hours incubation. […] The plate was incubated for 20 minutes at room temperature and then UV absorbance the samples was measured by microplate reader (ELISA reader, DENLEY Co., Japan) to calculate the cell viability at 570 nm. The cell viability rate of negative control group treated with only medium was calculated as a 100% and those of other sample and positive control were calculated. […] The measured absorbance showing the reduced amount of existing cellular enzyme in MTT was proportioned to survival cell density. […]

Another assay relates to splenic leucocytes. The assay can be described thus: Immunostimulating effect on splenic leucocytes (flow cytometry). It counts as cell-based, BALB c mouse. The note with it: 3 days. The procedure: To determine the immunostimulating effect of the extract of the present invention, splenic leucocytes (1×10^6 cells/ml) of BALB c mouse were suspended in RPMI1640 medium (Gibco BRL Co., Ltd., USA) supplemented with 100 μg/ml of streptomycin, 100 U/ml of penicillin and 10% fetal bovine serum, and treated with 200 μl/ml of the extracts of Comparative Example 1, 2 and Example 1, 2, respectively. The solution was incubated at 37° C. in 5% CO2 and 95% air condition in a humidified incubator for 3 days and the formation of leucocytes was determined by Flow cytometry. 200 μg/ml of adriamycin treatment group was used as control group.
Background: A flow cytometer gives signals particle by particle.

Assay [2] has as its system U937 cells (human leukemia cell line). In words: MTT cell cytotoxicity on U937 cells. It is filed as cell-based. To be noted: U-937, 48 hours, adriamycin, read-out: IC50, cytotoxic effect on U937 cells. The procedure:
as §1

Assay [3] deals with A549 cells (human lung cancer cell line). The assay can be described thus: MTT cell cytotoxicity on A549 cells. The note with it: 48 hours, adriamycin, read-out: IC50, cytotoxic effect on A549 cells (text, printed A5497). It counts as cell-based. The procedure: as §1
Assay [4] deals with Lewis lung carcinoma cells. In words: Inhibition of tumor volume increase, Lewis lung carcinoma in mice. The note with it: 0.5 mg/mouse intraperitoneally, 2 weeks. It is filed as in vivo, BDF-1 male mice. The procedure: To determine the inhibitory effect on the volumetric increase of cancer cell, following experiment was performed by modifying the procedure disclosed in the literature (Teruhiro et al., Cancer Res., 56, pp 2809-14, 1996).
Lewis lung carcinoma cells (1×10^6 cells/well) which had been sub-cultured in vivo of experimental mouse and adjusted the concentration to 1×10^6 cells/well, was injected into the left armpit of BDF-1 male mice (6-week-old). After 24 hours, adriamycin in the concentration of 0.5 and 1 mg/mouse, and the extracts prepared in Comparative Example 1, 2 and Example 1, 2 in the concentration of 50 and 100 μl/mouse were injected into the mice intraperitoneally. The injection of samples was maintained for 2 weeks until the tumor volume of non-treatment group used as control group become to 2 cm^3. After 2 weeks, the tumor volume was calculated by using following mathematical formulae 1 and 2 to measure the inhibition rate of tumor volume.
[formula] L (cm): Length of the tumor W^2 (cm^2): Width of the tumor
[formula] A: Tumor volume (cm^3) of control group B: Tumor volume (cm^3) of sample treatment group

Usually IC50 stands for the concentration that inhibits the measured activity by half. In the case of `COc1cccc2c1C(=O)c1c(O)c3c(c(O)c1C2=O)C[C@@](O)(C(=O)CO)C[C@@H]3O[C@H]1C[C@H](N)[C@H](O)[C@H](C)O1` [Adriamycin, adriamycin], the IC50 in assay [1], in assay [2] and in assay [3] was 3 µg/mL (≈ 5.52 µM) each time. The “Decrease of immunity” value in the assay with splenic leucocytes (200 μg/ml adriamycin) was determined as 26.1%. Further, the “Increase rate of lymphocyte (%)” value in the assay with splenic leucocytes (concentration 200 μg/ml) is listed as −21.6%. The “Inhibition effect (%) on tumor volume” value in assay [4] is 31.20 ± 8.05%.
